Measurements: EP1614683B1, “Indazole compounds and pharmaceutical compositions for inhibiting protein kinases, and methods for their use” (priority 1999, dated 2001)
Values joined by “and” are separate entries in the source; they are usually repeats but may differ in a detail not shown here. Equal values may be shown once. Read-outs that look alike come from different tables or passages of the source.

Key:
[1] = biological target: T1, CDK4/Cyclin D3 complex (Homo sapiens, UniProt P11802); test: biochemical; conditions: read-out: CDK4 * (% inhibition)
T1 sequence (P11802 whole entry): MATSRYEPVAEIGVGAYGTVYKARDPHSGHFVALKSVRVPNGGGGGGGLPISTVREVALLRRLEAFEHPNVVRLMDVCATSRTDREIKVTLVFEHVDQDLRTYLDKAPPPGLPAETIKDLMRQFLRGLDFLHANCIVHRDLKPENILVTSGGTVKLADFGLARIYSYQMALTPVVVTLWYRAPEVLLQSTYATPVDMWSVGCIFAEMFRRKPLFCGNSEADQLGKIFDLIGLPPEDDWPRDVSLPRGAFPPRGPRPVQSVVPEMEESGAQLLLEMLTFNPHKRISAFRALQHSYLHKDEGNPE
T1 sequence (P30281 whole entry partner): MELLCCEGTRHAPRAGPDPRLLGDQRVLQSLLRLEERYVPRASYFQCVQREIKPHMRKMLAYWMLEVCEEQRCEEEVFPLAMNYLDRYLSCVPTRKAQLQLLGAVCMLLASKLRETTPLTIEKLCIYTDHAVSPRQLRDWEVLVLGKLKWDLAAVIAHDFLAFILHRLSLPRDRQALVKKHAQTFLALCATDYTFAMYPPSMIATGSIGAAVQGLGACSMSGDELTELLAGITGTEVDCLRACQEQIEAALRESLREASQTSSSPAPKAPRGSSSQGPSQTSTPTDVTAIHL

[2] = biological target: T2, human FAK (FAKcd409) (Homo sapiens, UniProt Q05397, P410T); test: FAK fluorescence polarization assay; format: biochemical; conditions: read-out: % Inhibition @ 1 µM FAK
T2 construct: comprises residues methionine 409 to glutamate 689; made in house; host or cells: baculovirus vector expression system (insect cells)
T2 sequence (Q05397 409-689 P410T): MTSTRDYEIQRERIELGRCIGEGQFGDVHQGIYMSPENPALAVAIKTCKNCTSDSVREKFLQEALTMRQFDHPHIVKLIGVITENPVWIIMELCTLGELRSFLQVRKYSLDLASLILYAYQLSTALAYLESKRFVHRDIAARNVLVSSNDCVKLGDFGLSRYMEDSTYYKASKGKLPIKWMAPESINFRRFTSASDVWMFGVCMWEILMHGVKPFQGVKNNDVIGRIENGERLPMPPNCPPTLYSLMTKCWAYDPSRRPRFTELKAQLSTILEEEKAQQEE
Protocol: FAK Construct for Assay. The catalytic domain of human FAK (FAKcd409) was expressed using the baculovirus vector expression system. […] The protein was purified using classical chromatography techniques.
FAK HTS utilized the fluorescence polarization assay provided by LJL Biosystems. The kinase reaction contained: 100mM Hepes pH 7.5, 10mM MgCl2, 1mM DTT, 1mM ATP, and 1mg/ml poly Glu-Tyr (4: 1). The reaction is initiated by the addition of 5nM FAKcd409. The reaction is terminated by the addition of EDTA followed by addition of fluor-labelled peptide and anti-phosphotyrosine antibody, both provided by LJL Biosystems. Inhibition results are read on a Analyst (LJL) detector.

[3] = biological target: phosphorylated VEGF-R2Δ50 (Homo sapiens, UniProt P35968, DEL940-989/E990V); test: biochemical; conditions: for inhibition at 0.05 µM: read-out: FLVK -P** (% inhibition); for inhibition at 1 µM: read-out: FLVK-P* (% inhibition)
Chain of phosphorylated VEGF-R2Δ50 (P35968 with tags, fused parts or gaps DEL940-989/E990V limits assumed): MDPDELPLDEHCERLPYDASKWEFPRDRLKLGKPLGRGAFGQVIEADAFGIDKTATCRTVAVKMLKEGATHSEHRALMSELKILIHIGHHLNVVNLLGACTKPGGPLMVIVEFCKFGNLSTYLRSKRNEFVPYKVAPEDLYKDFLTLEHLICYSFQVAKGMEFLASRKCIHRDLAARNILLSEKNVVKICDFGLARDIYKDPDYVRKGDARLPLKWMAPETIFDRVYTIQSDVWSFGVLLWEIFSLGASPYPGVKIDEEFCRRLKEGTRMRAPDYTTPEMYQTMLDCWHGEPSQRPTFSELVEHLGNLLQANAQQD

[4] = in vitro; format: in vitro ADME, human; conditions: 2 h
Summary of the method: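 HLM diluted to 5 mg/mL in 100 mM KPO4, preincubated 10 min at 37 °C with NADPH-regenerating system. Compound (5 µM final) incubated at 37 °C in triplicate, sampled at 0 and 2 h into ice-cold acetonitrile, then LC-MS analysis.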

[5] = in vivo; conditions: mouse, plasma, pH 2.3
[6] = biological target: T3, human CHK1 (FL-CHK1) (Homo sapiens, UniProt O14757); test: CHK1 coupled spectrophotometric assay; format: biochemical; conditions: for inhibition at 1 µM: read-out: CHK1* (% inhibition)
T3 construct: C-terminally His-tagged full-length human CHK1 (FL-CHK1) was expressed using the baculovirus/insect cell system; made in house; host or cells: baculovirus/insect cell system
T3 sequence (O14757 1-476): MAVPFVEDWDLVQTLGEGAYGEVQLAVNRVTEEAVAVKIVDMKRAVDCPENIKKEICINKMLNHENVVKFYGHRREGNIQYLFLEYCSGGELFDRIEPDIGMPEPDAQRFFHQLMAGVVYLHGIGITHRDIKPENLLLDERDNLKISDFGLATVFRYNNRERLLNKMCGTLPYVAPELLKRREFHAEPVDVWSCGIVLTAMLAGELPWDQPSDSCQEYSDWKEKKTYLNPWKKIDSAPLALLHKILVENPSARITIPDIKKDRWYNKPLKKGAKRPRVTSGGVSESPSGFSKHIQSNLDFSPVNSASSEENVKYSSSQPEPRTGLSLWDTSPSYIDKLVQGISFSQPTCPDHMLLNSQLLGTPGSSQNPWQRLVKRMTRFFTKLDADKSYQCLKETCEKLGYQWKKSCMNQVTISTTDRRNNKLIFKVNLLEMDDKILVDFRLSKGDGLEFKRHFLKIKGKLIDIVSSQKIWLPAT
Summary of the method: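 His-tagged full-length human CHK1 from baculovirus/insect cells, 10 nM, phosphorylating Syntide-2. ADP formation coupled via PK/LDH with PEP to NADH oxidation, followed as absorbance decrease at 340 nm. Ki from initial rates at varying compound concentrations.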

[7] = biological target: human FGF-R1 (Homo sapiens, UniProt P11362, C488A/C584S/L457V); test: FGF-R spectrophotometric assay; format: biochemical; conditions: Table 1; for inhibition at 1 µM: read-out: FGF-P* (% inhibition)
Chain of human FGF-R1 (P11362 456-766 L457V/C488A/C584S): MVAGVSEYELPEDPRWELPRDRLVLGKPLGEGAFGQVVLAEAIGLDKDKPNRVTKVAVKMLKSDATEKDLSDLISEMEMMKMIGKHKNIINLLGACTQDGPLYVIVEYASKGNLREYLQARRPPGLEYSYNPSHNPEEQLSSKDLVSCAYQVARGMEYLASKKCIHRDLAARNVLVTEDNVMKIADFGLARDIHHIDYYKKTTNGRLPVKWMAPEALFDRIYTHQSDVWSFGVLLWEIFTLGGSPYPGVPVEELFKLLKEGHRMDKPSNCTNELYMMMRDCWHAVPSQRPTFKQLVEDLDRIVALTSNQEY
Protocol: The spectrophotometric assay was carried out as described above for VEGF-R2, except for the following changes in concentration: FGF-R = 50 nM, ATP = 2 mM, and poly(E4Y1) =15 mM.

[8] = test system: lung cancer cells (line MV522); test: Cancer cell proliferation (MV522) assay; format: cell-based; conditions: MV522; Table 1; read-out: MV522 IC50
Summary of the method: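 MTT reduction read-out was taken 72 h after addition of test agents, with no prior serum starvation. Cells were plated beforehand at two thousand per well in RPMI1640 containing 10% FBS and 2 mM glutamine and allowed one day to adhere.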

[9] = biological target: T4, unphosphorylated VEGF-R2Δ50 (Homo sapiens, UniProt P35968, DEL940-989/E990V); test: biochemical
T4 sequence (P35968 with tags, fused parts or gaps DEL940-989/E990V limits assumed): as the sequence (P35968 with tags, fused parts or gaps DEL940-989/E990V limits assumed) above

[10] = biological target: LCK tyrosine kinase (Homo sapiens, UniProt P06239, C224D/P223M); test: LCK spectrophotometric assay; format: biochemical; conditions: Table 1, compound concentration 1 µM; for inhibition at 1 µM: read-out: Lck-P* (% inhibition)
Chain of LCK tyrosine kinase (P06239 223-509 P223M/C224D): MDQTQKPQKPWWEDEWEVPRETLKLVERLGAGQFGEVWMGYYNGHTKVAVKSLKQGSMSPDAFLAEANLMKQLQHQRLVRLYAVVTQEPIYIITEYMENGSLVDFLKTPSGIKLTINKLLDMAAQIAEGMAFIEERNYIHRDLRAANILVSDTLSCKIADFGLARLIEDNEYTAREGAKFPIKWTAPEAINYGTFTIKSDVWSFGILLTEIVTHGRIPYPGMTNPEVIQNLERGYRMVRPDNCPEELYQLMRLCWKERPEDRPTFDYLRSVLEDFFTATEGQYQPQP
Protocol: The spectrophotometric assay was carried out as described above for VEGF-R2, except for the following changes in concentration: LCK = 60 nM, MgCl2 = 0 mM, poly(E4Y1) = 20 mM.

[11] = biological target: T4, unphosphorylated VEGF-R2Δ50; conditions: Table 1; for FLVK ** (% inhibition): compound concentration 50 nM; for Ki: read-out: FLVK ** (Ki)
[12] = test system: VEGF dependent retinal neovascularization; test: Neonatal rat model of retinopathy of prematurity; format: in vivo; conditions: Model ROP, intravitreal, vehicle PEG/water 70:30
[13] = test system: VEGF dependent retinal vascular development; test: In vivo assay of retinal vascular development in neonatal rats; parameters: species or system rat; conditions: vehicle PEG/water 70:30
Summary of the method: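 Neonatal rats given compound by intravitreal injection, vehicle usually 50% PEG 400/50% 300 mM sucrose, with vehicle in contralateral eye. Retinas removed six days later, ADPase-stained and flat-mounted; stained vessel area quantified by imaging and expressed as percent regression versus vehicle eye.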

[14] = test system: human umbilical vein endothelial cells (HUVEC); test: HUVEC proliferation assay (VEGF-stimulated, MTT); format: cell-based; conditions: Table 1
[15] = biological target: T1, CDK4/Cyclin D3 complex; conditions: read-out: CDK4* (Ki), Table 2
[16] = mouse, in vivo, pH 2.3
[17] = human liver microsomes, 5 µM test compound, 37 °C
[18] = Homo sapiens, HUVEC, + albumin, read-out: HUVEC + albumin IC50
[19] = Homo sapiens, HUVEC, read-out: HUVEC IC50

Compound: CNC(=O)c1ccccc1Sc1ccc2c(/C=C/c3ccccn3)n[nH]c2c1 [Reference Example 33(a), 6-[2-(methylcarbamoyl)phenylsulfanyl]-3-E[2-(pyridin-2-yl)ethenyl]indazole]
- inhibition at 1 µM [1]: 7%
- inhibition at 1 µM [2]: 12%
- inhibition at 0.05 µM [3]: 42%
- % remain (HLM, 2 h) ([4]; human, microsomes, 5 µM): 29%
- AUC ([5]; ip, 25 mg/kg): 13800 ng·h/mL
- AUC ([5]; po, 50 mg/kg): 19100 ng·h/mL

Compound: Oc1ccc(-c2ccc3c(-c4nc5ccccc5[nH]4)n[nH]c3c2)c(O)c1 [24(f), 3-1H-Benzoimidazol-2-yl-6-(2,4-dihydroxyphenyl)-1H-indazole]
- inhibition at 1 µM [6]: 97%
- inhibition at 1 µM [3]: 89%

Compound: CC(=O)NC(C(=O)Nc1cccc(C(=O)c2ccc3c(/C=C/c4ccccc4)n[nH]c3c2)c1)c1ccccc1 (stereo not shown) [19(i), 6-[3-(2-acetamido-2-phenylacetamido)benzoyl]-3-E-styryl-1H-indazole]
- inhibition at 1 µM ([7]; compound concentration 1 µM): 88%
- IC50 [8]: 3800 nM
- Ki [9]: 0.72 nM
- Ki [3]: 4.7 nM
- inhibition at 1 µM [10]: 36%

Compound: NNC(=O)c1ccccc1Sc1ccc2c(C=Cc3ccccn3)n[nH]c2c1 [35(il)]
- FLVK ** (% inhibition) [11]: 44%

Compound: 6-[2-((4-Aminobenzyl)methylcarbamoyl)phenylsulfanyl]-3-E-[2-(pyridin-2-yl)ethenyl]-1H-indazole [Reference Example 35(I)]
- % remain (HLM, 2 h) ([4]; human, microsomes, 5 µM): 5%
- FLVK ** (% inhibition) ([11]; listed as 35(l), 0.05 µM): 100% and 99%

Compound: O=C(Nc1cccc(C(=O)c2ccc3c(/C=C/c4ccccn4)n[nH]c3c2)c1)c1ccccc1 [Reference Example 42(a), 6-(3-Benzamidobenzoyl)-3-E-[2-(pyridin-2-yl)ethenyl]-1H-indazole]
- % Inhibition ([12]; 1 mg/ml): 1%
- Initial Evaluation ([12]; 1 mg/ml): + (one plus being detectable regression judged to be approximately 25 percent or less)
- % Inhibition ([12]; 10 mg/ml): 23%
- IC50 [8]: 5500 nM
- % Inhibition ([13]; Model P6-P10, IP*): 61%
- % Inhibition ([13]; Model P9, intravitreal, 10 mg/ml): 55%
- inhibition at 0.05 µM [3]: 79%
- % remain (HLM, 2 h) [4, 17]: 92%

Compound: O=C(Nc1cccc(C(=O)c2ccc3c(/C=N/n4cnnc4)n[nH]c3c2)c1)c1ccccc1 [Example 42(e), 6-(3-benzamidobenzoyl)-3-E-[N-(4H-1,2,4-triazol-4-yl)iminomethyl]-1H-indazole]
- Ki [11]: 1.1 nM

Compound: O=C(NC1CC1)c1ccccc1Sc1ccc2c(/C=C/c3ccccn3)n[nH]c2c1 [Reference Example 33(e), 6-[2-(cyclopropylcarbamoyl)phenylsulfanyl]-3-E-[2-(pyridin-2-yl)ethenyl]-1H--1H-indazole]
- inhibition at 1 µM ([7]; compound concentration 1 µM): 68%
- % Inhibition ([13]; Model P8, intravitreal, 5 mg/ml): 22%
- inhibition at 0.05 µM [3]: 70%
- % remain (HLM, 2 h) [4, 17]: 54%
- IC50 [14, 18]: 5 nM
- IC50 [14, 19]: 0.46 nM
- inhibition at 1 µM [10]: 2%

Compound: CCc1cc(O)ccc1-c1ccc2c(-c3nc4ccccc4[nH]3)n[nH]c2c1 [24(e), 3-1H-Benzoimidazol-2-yl-6-(2-ethyl-4-hydroxyphenyl)-1H-indazole]
- inhibition at 1 µM ([6]; Table 2, compound concentration 1 µM, NI = no significant inhibition): 75%
- inhibition at 1 µM [3]: 52%

Compound: C/C=C/C(=O)Nc1cccc(C(=O)c2ccc3c(/C=C/c4ccccn4)n[nH]c3c2)c1 [Reference Example 41(c), 6-(3-crotonylamidobenzoyl)-3-E-[2-(pyridio-2-yl)ethenyl]-1H-indazole]
- inhibition at 1 µM ([7]; compound concentration 1 µM): 77%
- inhibition at 0.05 µM [3]: 83%
- % remain (HLM, 2 h) [4, 17]: 68%
- IC50 [14, 18]: 5.3 nM
- IC50 [14, 19]: 0.4 nM
- inhibition at 1 µM [10]: 36%

Compound: CCn1nc(C)cc1C(=O)Nc1cc(C(=O)c2ccc3c(/C=C/c4ccccn4)n[nH]c3c2)c(C)cc1C [41(11)]
- Ki ([7]; read-out: FGF-P* (Ki)): 11 nM
- % remain (HLM, 2 h) ([4]; human, microsomes, 5 µM): 85%
- Lck-P* (% inhibition) [10]: 18%
- FLVK ** (% inhibition) [11]: 57%

Compound: CCOCc1cc(O)c(OC)cc1-c1ccc2c(-c3nc4ccccc4[nH]3)n[nH]c2c1 [Reference Example 24(l), 3-1H-Benzoimidazol-2-yl-6-(2-(ethoxymethyl)-5-methoxy-4-hydroxy-phenyl)-1H-indazole]
- inhibition at 20 µM ([6]; read-out: CHK1* (% inhibition @ 20 µM)): 62%
- Ki [15]: 13 nM
- Ki ([15]; listed as 24(1)): 71 nM

Compound: O=C(c1cccc(NC(=O)c2ccccn2)c1)c1ccc2c(/C=C/c3ccccn3)n[nH]c2c1 [41 (aa)]
- AUCleast ([16]; ip, 25 mg/kg): 6659 ng·h/mL
- T1/2 ([16]; ip, 25 mg/kg): 2.1 h
- Cmin (7 hr conc.) ([16]; po, 50 mg/kg, 7 h): 5 ng/mL
- AUCleast ([16]; po, 50 mg/kg): 289 ng·h/mL
- T1/2 ([16]; po, 50 mg/kg): 0.9 h
- FGF-P* (% inhibition) ([7]; compound concentration 1 µM): 37%
- % remain (HLM, 2 h) ([4]; human, microsomes, 5 µM): 100%
- IC50 ([14]; read-out: HUVEC IC50): 1 nM
- Lck-P* (% inhibition) [10]: 49%
- Ki [11]: 0.11 nM
